PMC6043372 (Journal of medicinal chemistry, 2018)
≈ marks a conversion by molar mass, not a printed value.

What was measured:
[1] = 100 mg/kg po daily over 4 weeks (24 doses)
[2] = system: M. bovis BCG; format: cell-based, Mycobacterium bovis BCG
[3] = physchem; details: pH 7.4
[4] = system: human red blood cells; test: Compound-induced hemolysis of human red blood cells; details: hemolyze 50% of human RBCs vs 2% Triton X-100
[5] = for levels in lung: CD-1, mouse, in vivo; for tolerability in PK study: 25 mg/kg PO single dose, mice
[6] = lecithin-dodecane lipid layer, 24 h, 25°C
[7] = system: Mtb H37Rv; set-up: species or system BALB/c mice; details: mouse, in vivo
[8] = system: piniBAC promoter; format: cell-based, Mycobacterium bovis BCG; details: 0.4-100 μM, 24 h
[9] = Electrophilic reactivity to cysteamine by 1H NMR; format: physicochemical; details: DMSO-d6, 1% acetic acid, up to 24 h
[10] = system: M. bovis BCG; test: microbe, parasite or virus in culture; format: cell-based; details: Mycobacterium tuberculosis variant bovis BCG, read-out: MIC MIC50
[11] = system: M. bovis BCG; format: cell-based, Mycobacterium bovis BCG; remark: listed apart in the source

Compound: CCCCCCCCn1cc(CN2CCC3(CC2)OCCO3)c2ccc(OC)cc21 [Compound 1, 8-[(6-methoxy-1-octyl-1H-indolyl-3-yl)methyl]-1,4-dioxa-8-azaspiro[4,5]decane]
- adverse effects during treatment period [1]: no adverse effects were detected
- kill of mycobacterial cultures by 48 h (time-kill) [2]: still viable at 48h
- solubility [3]: 23.9 ± 0.8 µM (≈ 9.91 µg/mL)
- HC50 [4]: 75 µM
- levels in lung [5]: ~ 1 μM
- PAMPA Effective Permeability (Pe) [6]: Cannot be determined
- bacterial loads in lungs and spleen (CFU) [7]: only reduced the splenic bacterial load
- induction of piniBAC promoter activity [8]: broadly similar to that of isoniazid

Compound: CCCCCCCCn1cc(CN2CCC3(CC2)OC[C@H](C)O3)c2ccc(OC)cc21 [Compound 7]
- HC50 [4]: 51 µM

Compound: CCCCCCCCn1cc(CN2CCC3(CC2)OC[C@@H](C)O3)c2ccc(OC)cc21 [Compound 8]
- HC50 [4]: 75 µM

Compound: CCCCCCCCn1cc(CN2CCC3(CC2)OCCCO3)c2ccc(OC)cc21 [Compound 12]
- adverse effects during treatment period [1]: no adverse effects were detected
- HC50 [4]: 64 µM
- tolerability in PK study [5]: did not cause obvious adverse effects
- Lung concentration at 5 h ([5]; 25 mg/kg PO, CD1 mice): 1408 ng/g
- levels in lung [5]: ~ 3 μM
- PAMPA Effective Permeability (Pe) [6]: Cannot be determined
- electrophilic reactivity to cysteamine [9]: limited electrophilic reactivity
- bacterial loads in lungs and spleen (CFU) [7]: significantly inhibited bacterial growth in both organs
- induction of piniBAC promoter activity [8]: increased the transcriptional activity of the piniBAC in a concentration dependent manner

Compound: CCCCCCCCn1cc(CN2CCC3(CC2)OCCCS3)c2ccc(OC)cc21 [Compound 13]
- solubility [3]: 30.9 ± 1.3 µM (≈ 13.7 µg/mL)
- tolerability in PK study [5]: did not cause obvious adverse effects
- PAMPA Effective Permeability (Pe) [6]: Cannot be determined
- electrophilic reactivity to cysteamine [9]: limited electrophilic reactivity
- induction of piniBAC promoter activity [8]: increased the transcriptional activity of the piniBAC in a concentration dependent manner

Compound: CCCCCCCCn1cc(CN2CCC3(CC2)OCCCO3)c2ccc(C#N)cc21 [Compound 57e]
- MIC50 [10]: 0.5 to 0.7 µM (≈ 0.212 to 0.297 µg/mL)

Compound: CCCCCCCCn1cc(CN2CCC3(CC2)OCCCO3)c2ccc(OCCC)cc21 [Compound 57f]
- MIC50 [10]: 0.5 to 0.7 µM (≈ 0.228 to 0.32 µg/mL)

Compound: CCCCCCCCn1cc(CN2CCC3(CC2)OCCCO3)c2ccc(OC(C)C)cc21 [Compound 57g]
- MIC50 [10]: 0.5 to 0.7 µM (≈ 0.228 to 0.32 µg/mL)

Compound: CCCCCCCCn1cc(CN2CCCCCC2)c2c(F)cccc21 [Compound 71, 3-(azepan-1-ylmethyl)-4-fluoro-1-octyl-1H indole]
- membrane potential (DiOC2 red/green ratio) [11]: no depolarization at these early time points
